Measured values from patent publication US7429482B2, “Screening tools for discovery of novel anabolic agents” (United States of America as represented by the Department …, priority 2005, dated 2008).

Key:
MAFbx = MAFbx expression in gastrocnemius of rats infused with dexamethasone with or without testosterone (qPCR); type: in vivo; settings: rat, dexamethasone plus testosterone 28 mg/kg/day, 7 days
Experimental: Muscle was flash frozen on dry ice after excision. Total RNA was isolated by phenol:chloroform extraction (Chomczynski and Sacchi, Anal Biochem 162: 156-159, 1987) and further enriched using RNAeasy minicolumns (Qiagen) with digestion on the column with RNAse-free DNAse (Qiagen).
RNA was quantified by absorbance at 260 nm. One microgram of total RNA was used to prepare cDNA libraries using the High Capacity cDNA Archive Kit (Applied Biosystems, Foster City, Calif.). Libraries were diluted 25-fold with water. Real time PCR was performed using Taqman 2×PCR buffer (Applied Biosystems) and an Applied Biosystems 7500 thermocycler. Data were normalized relative to that for 18S RNA. Relative changes in expression were determined using the 2^−ΔΔCt method. Taqman Assay on Demand probes (Applied Biosystems) were used for all assays except rat 18S RNA, which was quantified using the following […]: Forward: […] (SEQ ID NO:15); Reverse: […] (SEQ ID NO:16); Probe: FAM-[…] (SEQ ID NO:17; Labeled with FAM and non-fluoresent quencher, NFQ, at 5′ and 3′ ends, repsectively).
Male Wistar rats weighing 250 gm were anesthetized with ketamine/xylazine followed by implantation Alzet miniosmotic pumps administering vehicle (propylene glycocol), dexamethasone (0.7 mg/kg/day), or dexamethasone plus testosterone (28 mg/kg/day). […]

[1] = tested on: starved, cultured muscle cells; test: Muscle breakdown in starved, cultured muscle cells; type: cell-based
[2] = Acute denervation (0-14 days): muscle weights; type: in vivo; settings: rat
Experimental: Male Wistar rats weighing 250 gm (Taconic Farms, Germantown, N.Y.) were provided food and water ad libitum and were housed in a temperature and humidity controlled environment providing a 12:12 hour day-night cycle. For surgical procedures, animals were anesthetized with ketamine/xylazine. The left sciatic nerve was exposed by blunt dissection, and a 1 to 2 mm piece of this nerve was excised just below the level of the femoral head. A sham surgery was performed on the right hind limb in which the sciatic nerve was exposed but was not transected. Model 2002 Alzet pumps were implanted subcutaneously on the back. […] A pellet containing 15 mg of testosterone (Innovative Research of America, Sarasota, Fla.) administered as a continuous infusion (5 mg/wk), or a pellet containing placebo, was inserted into a subcutaneous pouch. […] Because testosterone is known to have anabolic actions (Ferrando et al., Am J Physiol Endocrinol Metab 282: E601-E607, 2002; Mauras et al., J Clin Endocrinol Metab 83: 1886-1892, 1998; Urban et al., Am J Physiol 269: E820-E826, 1995), reductions in levels of this hormone could affect muscle mass and confound interpretation of the results. Animals were euthanized 14 days later by inhalation of carbon dioxide. Following removal of blood from the left ventricle for determination of serum testosterone concentration by radioimmunoassay (MP Biomedicals, Costa Mesa, Calif.), soleus, extensor digitorum longus (EDL), gastrocnemius and plantaris muscles were excised and weighed, then were flash frozen on dry ice and stored at −80° C.

MuRF1 = test: Chronic denervation: MuRF1 mRNA in gastrocnemius (qPCR); type: in vivo, rat; settings: for reduction of MuRF1 expression: denervated muscle
Experimental: (§1) Male Wistar rats weighing 200-250 gm (Taconic Farms, Germantown, N.Y.) were provided food and water ad libitum and were housed in a temperature and humidity controlled environment providing a 12:12 hour day-night cycle. For surgical procedures, animals were anesthetized with ketamine/xylazine. The left sciatic nerve was exposed by blunt dissection, and a 1 to 2 mm piece of this nerve was excised just below the level of the femoral head. A sham surgery was performed on the right hind limb in which the sciatic nerve was exposed but was not transected. Twenty eight days later, animals were anesthetized, and Alzet pumps were implanted subcutaneously on the back. […] Testosterone levels after replacement were approximately 15 nM, a high-normal range for rats of this age. Animals were sacrificed 3, 7 or 28 days after implantation of the miniosmotic pumps by inhalation of carbon dioxide. Gastrocnemius muscles were excised and weighed, then flash frozen on dry ice and stored at −80° C.
(§2) Total RNA was extracted from skeletal muscle (20 mg) by homogenization in guanidine thiocyanate using a Polytron followed by extraction of total RNA with phenol-chloroform as described by (Chomczynski and Sacchi, Anal Biochem 162: 156-159, 1987). Total RNA was further enriched using RNAeasy minicolumns (Qiagen, Valencia, Calif.). This procedure included digestion of contaminating DNA on the column with RNAse-free DNAse (Qiagen). Total RNA was eluted and quantified by absorbance at 260 nm. One μg of total RNA was used to prepare a cDNA library by reverse transcription (High Capacity cDNA Archive Kit, Applied Biosystems). Libraries were diluted 25-fold with water. Real time PCR was performed Taqman 2×PCR buffer (Applied Biosystems) using an Applied Biosystems 7500 thermocycler. Levels of gene expression in the denervated muscle were expressed as fold induction relative to muscle from the sham-denervated leg of animals administered vehicle. […] Fold-induction was determined using the 2^−ΔΔCt method, using expression of 18S RNA as the normalization control. […]

IGFBP-4 = test: Chronic denervation: IGFBP-4 mRNA in gastrocnemius (qPCR); type: in vivo, rat
Experimental: as §1, with “Animals were sacrificed 3, 7 or 28 days after implantation of the miniosmotic pumps by inhalation of carbon dioxide. Gastrocnemius muscles were excised and weighed, then flash frozen on dry ice and stored at −80° C.” left out
Total RNA was extracted from skeletal muscle (20 mg) by homogenization in guanidine thiocyanate using a Polytron followed by extraction of total RNA with phenol-chloroform as described by (Chomczynski and Sacchi, Anal Biochem 162: 156-159, 1987). […] Total RNA was eluted and quantified by absorbance at 260 nm. […] Levels of gene expression in the denervated muscle were expressed as fold induction relative to muscle from the sham-denervated leg of animals administered vehicle. […] Fold-induction was determined using the 2^−ΔΔCt method, using expression of 18S RNA as the normalization control. […]

IGFBP-5 = test: Chronic denervation: IGFBP-5 mRNA in gastrocnemius (qPCR); type: in vivo, rat
Experimental: as §1, §2

GADD45 = test: Chronic denervation: GADD45 mRNA in gastrocnemius (qPCR); type: in vivo, rat
Experimental: as §1, §2

[3] = denervated muscle, any time tested

| Structure (SMILES) | effects of dexamethasone on MAFbx expression in gastrocnemius (MAFbx) | muscle breakdown [1] | weights of muscles from sham-transected limbs ([2]; nandrolone 1.5 mg/kg/wk 14 days + testosterone replacement, not statistically significant) | weights of muscles from the denervated limb versus vehicle ([2]; nandrolone 1.5 mg/kg/wk, 14 days after sciatic transection) | effect on atrophy ([2]; nandrolone 7.5 or 37.5 mg/kg/week, same protocol) | reduction of MuRF1 expression (MuRF1; 7-days administration) | reduction of MuRF1 expression (MuRF1; 28-days administration) | MuRF1 expression (MuRF1; muscle of sham-denervated hindlimbs) | IGFBP-4 expression (IGFBP-4; [3]) | IGFBP-4 expression (IGFBP-4; sham-denervated muscle) | IGFBP-5 expression (IGFBP-5; denervated muscle, 56-days) | IGFBP-5 expression (IGFBP-5; [3]) | IGFBP-5 expression (IGFBP-5; sham-denervated muscle) | GADD45 expression (GADD45; denervated muscle, after 3 and 7-days, not significant) | effect on GADD45 expression (GADD45; denervated muscle, after 28-days infusion) | GADD45 expression (GADD45; sham-denervated muscle) |
| --- | --- | --- | --- | --- | --- | --- | --- | --- | --- | --- | --- | --- | --- | --- | --- | --- |
| C[C@]12CC[C@H]3[C@@H](CCC4=CC(=O)CC[C@@]43C)[C@@H]1CC[C@@H]2O [testosterone] | completely blocked | reduced | – | – | – | – | – | – | – | – | – | – | – | – | – | – |
| C[C@]12CC[C@H]3[C@@H](CCC4=CC(=O)CC[C@@H]43)[C@@H]1CC[C@@H]2O [nandrolone] | – | – | tended to be increased | not significantly different | No effect | 31% | 37% | no effect | did not significantly alter | did not appreciably alter | tended to reduce | did not significantly alter | did not appreciably alter | tended to reduce | lost | no appreciable effect |
